# Biological target: T1, NR1/NR2A (Homo sapiens, UniProt Q05586+Q12879)
# T1 construct: host or cells: HEK293 (tetracycline-inducible NR2A expression)
# Test: FDSS Ca2+ influx inhibition assay in HEK293 cells expressing NR1/NR2A
# Assay type: cell-based
# Conditions: 3 μM glutamate, 3 μM glycine, 1 mM Ca2+, Ca2+ influx inhibition relative to MK801, read-out: NR2A IC50
# Experimental: Cell Culture and plating: HEK293 cells expressing NR1/NR2A (Chantest, Cleveland, Ohio) were grown to 70-80% confluency as an adherent monolayer in standard tissue culture flasks at 37° C., 5% CO2 per supplier's instructions.
# After induction, cell culture medium was removed and cells were rinsed once with Ca^2+ and Mg^2+-free Dulbecco's phosphate buffered saline. Cells were then removed from the flask using TrypLE™ Express (Life Technologies) according to the manufacturer's instructions and collected to 50 ml centrifuge tubes. Following two washes in Ca^27 Mg^2′-free HBSS with 20 mM HEPES (HHnoCa), cells were counted and viability assessed using trypan blue. To load cells with Ca^2′-sensitive dye, they were resuspended in fluo-8 plus Component B (AAT Bioquest Products) diluted in HHnoCa and incubated 15 minutes at 37° C., followed by 30 minutes at room temp (in dark). Cells were then washed and resuspended in HHnoCa to remove extracellular dye and plated in 384-well plates (Falcon, uncoated) at 20,000-30,000 cells/well in a final volume of 25 μL/well.
# FDSS Assay: To each well of the plate, 10 μLtest compound, control (MK801) or HHnoCa buffer was added to a final concentration of 10 μM with a final concentration of DMSO of 0.1%. Following 10 minutes pre-incubation in the dark, plates are loaded onto the Hamamatsu FDSS 6000. After collecting baseline fluorescence images, 3 μM glutamate, 3 μM glycine, and 1 mM Ca^2+ in HHnoCa buffer is added to each well, and Ca^2+ is recorded for 3 minutes. Data were processed by computing ratio of fluorescence at the end of data collection to baseline fluorescence to assess degree of Ca^2+ influx inhibition relative to that observed in MK801.
# T1 sequence (Q12879 23-1464, other chains not shown): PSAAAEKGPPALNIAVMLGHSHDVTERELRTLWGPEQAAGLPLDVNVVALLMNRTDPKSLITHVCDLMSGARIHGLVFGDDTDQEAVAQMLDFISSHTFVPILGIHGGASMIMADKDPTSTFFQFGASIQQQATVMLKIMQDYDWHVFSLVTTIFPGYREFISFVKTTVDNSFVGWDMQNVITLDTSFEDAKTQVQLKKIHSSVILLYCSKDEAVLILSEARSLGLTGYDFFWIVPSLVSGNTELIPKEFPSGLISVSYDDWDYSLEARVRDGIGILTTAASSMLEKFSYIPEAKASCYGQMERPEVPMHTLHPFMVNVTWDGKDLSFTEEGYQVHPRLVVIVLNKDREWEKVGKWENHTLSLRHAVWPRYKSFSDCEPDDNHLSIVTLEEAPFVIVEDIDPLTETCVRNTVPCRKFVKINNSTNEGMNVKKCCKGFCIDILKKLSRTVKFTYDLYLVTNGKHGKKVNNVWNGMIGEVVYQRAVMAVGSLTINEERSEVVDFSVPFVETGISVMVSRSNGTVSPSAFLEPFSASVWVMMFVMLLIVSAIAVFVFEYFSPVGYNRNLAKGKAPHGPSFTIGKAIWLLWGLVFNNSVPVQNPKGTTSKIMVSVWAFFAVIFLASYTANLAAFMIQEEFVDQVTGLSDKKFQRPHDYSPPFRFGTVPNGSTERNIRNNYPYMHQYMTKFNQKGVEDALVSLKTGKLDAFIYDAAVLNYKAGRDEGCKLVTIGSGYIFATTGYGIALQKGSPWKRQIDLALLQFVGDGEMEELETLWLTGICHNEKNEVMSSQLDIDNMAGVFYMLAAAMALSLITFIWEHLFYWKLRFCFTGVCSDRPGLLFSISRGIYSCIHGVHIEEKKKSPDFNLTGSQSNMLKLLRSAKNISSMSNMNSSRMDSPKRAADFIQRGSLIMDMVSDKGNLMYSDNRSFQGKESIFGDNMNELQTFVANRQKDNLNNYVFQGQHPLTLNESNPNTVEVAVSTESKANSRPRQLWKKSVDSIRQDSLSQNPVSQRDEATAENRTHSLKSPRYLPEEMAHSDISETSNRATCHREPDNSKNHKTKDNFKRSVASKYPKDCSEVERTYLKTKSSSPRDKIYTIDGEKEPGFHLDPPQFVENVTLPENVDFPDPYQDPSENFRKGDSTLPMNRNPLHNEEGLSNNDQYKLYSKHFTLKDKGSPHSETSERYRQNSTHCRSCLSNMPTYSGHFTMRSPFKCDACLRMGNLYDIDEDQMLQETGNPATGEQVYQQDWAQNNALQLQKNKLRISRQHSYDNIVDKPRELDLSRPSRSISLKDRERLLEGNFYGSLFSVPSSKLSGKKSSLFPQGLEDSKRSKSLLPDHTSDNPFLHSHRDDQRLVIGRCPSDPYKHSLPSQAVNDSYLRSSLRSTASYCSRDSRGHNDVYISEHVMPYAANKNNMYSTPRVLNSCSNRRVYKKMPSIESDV
row,Structure (SMILES),IC50 [nM]
1,"Cc1ncc(CNC(=O)c2ccc(CNS(=O)(=O)c3ccc(Cl)c(Cl)c3)cn2)s1 [5-(3,4-dichlorobenzenesulfon-amidomethyl)-N-[(2-methyl-1,3-thiazol-5-yl)methyl]pyridine-2-carboxamide]",6680
2,"Cc1ncc(CNC(=O)c2ccc(CNS(=O)(=O)c3ccc(F)c(F)c3)cn2)s1 [5-(3,4-difluorobenzenesulfon-amidomethyl)-N-[(2-methyl-1,3-thiazol-5-yl)methyl]pyridine-2-carboxamide]",219
3,"Cc1ncc(CNC(=O)c2cnc(CNS(=O)(=O)c3cc(F)cc(F)c3)c(C)n2)s1 [5-(3,5-difluorobenzenesulfon-amidomethyl)-6-methyl-N-[(2-methyl-1,3-thiazol-5-yl)methyl]pyrazine-2-carboxamide]",366
4,"O=C(NCc1ccno1)c1ccc(CNS(=O)(=O)c2ccc(F)c(Cl)c2)cn1 [5-(3-chloro-4-fluorobenzenesulfon-amidomethyl)-N-(1,2-oxazol-5-ylmethyl)pyridine-2-carboxamide]",2180
5,"O=C(NCc1cnco1)c1ccc(CNS(=O)(=O)c2ccc(F)c(Cl)c2)cn1 [5-(3-chloro-4-fluorobenzenesulfon-amidomethyl)-N-(1,3-oxazol-5-ylmethyl)pyridine-2-carboxamide]",1950
6,"O=C(NCc1nccs1)c1ccc(CNS(=O)(=O)c2ccc(F)c(Cl)c2)cn1 [5-(3-chloro-4-fluorobenzenesulfon-amidomethyl)-N-(1,3-thiazol-2-ylmethyl)pyridine-2-carboxamide]",9130
7,"O=C(NCc1cncs1)c1ccc(CNS(=O)(=O)c2ccc(F)c(Cl)c2)cn1 [5-(3-chloro-4-fluorobenzenesulfon-amidomethyl)-N-(1,3-thiazol-5-ylmethyl)pyridine-2-carboxamide]",347
8,O=C(NCc1cnccn1)c1cnc(CNS(=O)(=O)c2ccc(F)c(Cl)c2)cn1 [5-(3-chloro-4-fluorobenzenesulfon-amidomethyl)-N-(pyrazin-2-ylmethyl)pyrazine-2-carboxamide],2100
9,O=C(NCc1cccnc1)c1cnc(CNS(=O)(=O)c2ccc(F)c(Cl)c2)cn1 [5-(3-chloro-4-fluorobenzenesulfon-amidomethyl)-N-(pyridin-3-ylmethyl)pyrazine-2-carboxamide],439
10,O=C(NCc1ccncc1)c1cnc(CNS(=O)(=O)c2ccc(F)c(Cl)c2)cn1 [5-(3-chloro-4-fluorobenzenesulfon-amidomethyl)-N-(pyridin-4-ylmethyl)pyrazine-2-carboxamide],1700
11,O=C(NCc1cncnc1)c1cnc(CNS(=O)(=O)c2ccc(F)c(Cl)c2)cn1 [5-(3-chloro-4-fluorobenzenesulfon-amidomethyl)-N-(pyrimidin-5-ylmethyl)pyrazine-2-carboxamide],4840
12,O=C(NCc1cncnc1)c1ccc(CNS(=O)(=O)c2ccc(F)c(Cl)c2)cn1 [5-(3-chloro-4-fluorobenzenesulfon-amidomethyl)-N-(pyrimidin-5-ylmethyl)pyridine-2-carboxamide],7390
13,"Cc1ncc(C(C)NC(=O)c2cnc(CNS(=O)(=O)c3ccc(F)c(Cl)c3)cn2)s1 (centres unmarked) [5-(3-chloro-4-fluorobenzenesulfon-amidomethyl)-N-[1-(2-methyl-1,3-thiazol-5-yl)ethyl]pyrazine-2-carboxamide]",180
14,Cn1cccc1CNC(=O)c1ccc(CNS(=O)(=O)c2ccc(F)c(Cl)c2)cn1 [5-(3-chloro-4-fluorobenzenesulfon-amidomethyl)-N-[(1-methyl-1H-pyrrol-2-yl)methyl]pyridine-2-carboxamide],2550

# Further lines, results first:
row,IC50 [nM],Structure (SMILES)
1,8950,Cn1cncc1CNC(=O)c1cnc(CNS(=O)(=O)c2ccc(F)c(Cl)c2)cn1 [5-(3-chloro-4-fluorobenzenesulfon-amidomethyl)-N-[(1-methyl-1H-imidazol-5-yl)methyl]pyrazine-2-carboxamide]
2,8360,Cn1cncc1CNC(=O)c1ccc(CNS(=O)(=O)c2ccc(F)c(Cl)c2)cn1 [5-(3-chloro-4-fluorobenzenesulfon-amidomethyl)-N-[(1-methyl-1H-imidazol-5-yl)methyl]pyridine-2-carboxamide]
3,5510,CC(NC(=O)c1ccc(CNS(=O)(=O)c2ccc(F)c(Cl)c2)cn1)c1ccco1 (centres unmarked) [5-(3-chloro-4-fluorobenzenesulfon-amidomethyl)-N-[1-(furan-2-yl)ethyl]pyridine-2-carboxamide]
4,4590,Cn1cc(CNC(=O)c2ccc(CNS(=O)(=O)c3ccc(F)c(Cl)c3)cn2)cn1 [5-(3-chloro-4-fluorobenzenesulfon-amidomethyl)-N-[(1-methyl-1H-pyrazol-4-yl)methyl]pyridine-2-carboxamide]
5,3090,Cn1cccc1CNC(=O)c1cnc(CNS(=O)(=O)c2ccc(F)c(Cl)c2)cn1 [5-(3-chloro-4-fluorobenzenesulfon-amidomethyl)-N-[(1-methyl-1H-pyrrol-2-yl)methyl]pyrazine-2-carboxamide]
6,2400,CC(NC(=O)c1ccc(CNS(=O)(=O)c2ccc(F)c(Cl)c2)cn1)c1cccs1 (centres unmarked) [5-(3-chloro-4-fluorobenzenesulfon-amidomethyl)-N-[1-(thiophen-2-yl)ethyl]pyridine-2-carboxamide]
7,1690,O=C(NCc1cnccn1)c1ccc(CNS(=O)(=O)c2ccc(F)c(Cl)c2)cn1 [5-(3-chloro-4-fluorobenzenesulfon-amidomethyl)-N-(pyrazin-2-ylmethyl)pyridine-2-carboxamide]
8,929,"O=C(NCc1cncs1)c1cnc(CNS(=O)(=O)c2ccc(F)c(Cl)c2)cn1 [5-(3-chloro-4-fluorobenzenesulfon-amidomethyl)-N-(1,3-thiazol-5-ylmethyl)pyrazine-2-carboxamide]"
9,758,O=C(NCc1cccnc1)c1ccc(CNS(=O)(=O)c2ccc(F)c(Cl)c2)cn1 [5-(3-chloro-4-fluorobenzenesulfon-amidomethyl)-N-(pyridin-3-ylmethyl)pyridine-2-carboxamide]
10,757,"Cc1ccc(CNC(=O)c2cnc(CNS(=O)(=O)c3ccc(F)c(Cl)c3)cn2)n1C [5-(3-chloro-4-fluorobenzenesulfon-amidomethyl)-N-[(1,5-dimethyl-1H-pyrrol-2-yl)methyl]pyrazine-2-carboxamide]"
11,494,"Cc1ncc(CNC(=O)c2cnc(CNS(=O)(=O)c3ccc(Cl)c(Cl)c3)c(C)n2)s1 [5-(3,4-dichlorobenzenesulfon-amidomethyl)-6-methyl-N-[(2-methyl-1,3-thiazol-5-yl)methyl]pyrazine-2-carboxamide]"
12,313,"Cc1ncc(CNC(=O)c2cnc(CNS(=O)(=O)c3ccc(F)c(F)c3)cn2)s1 [5-(3,4-difluorobenzenesulfon-amidomethyl)-N-[(2-methyl-1,3-thiazol-5-yl)methyl]pyrazine-2-carboxamide]"
13,87.8,"CCc1nc(C(=O)NCc2cnc(C)s2)cnc1CNS(=O)(=O)c1ccc(F)c(Cl)c1 [5-(3-chloro-4-fluorobenzenesulfon-amidomethyl)-6-ethyl-N-[(2-methyl-1,3-thiazol-5-yl)methyl]pyrazine-2-carboxamide]"
14,19.6,"Cc1ncc(CNC(=O)c2cnc(CNS(=O)(=O)c3ccc(F)c(Cl)c3)c(C)n2)s1 [5-(3-chloro-4-fluorobenzenesulfon-amidomethyl)-6-methyl-N-[(2-methyl-1,3-thiazol-5-yl)methyl]pyrazine-2-carboxamide]"

# Same assay, conditions: binned NR2A inhibition concentration, read-out: Binned Activity
row,IC50 [nM],Structure (SMILES)
1,> 10000,Cc1ncc(CNC(=O)c2ccc(CNS(=O)(=O)c3c(C)noc3C)cn2)s1

# — patent US20150141433A1, “N-ARYLMETHYL SULFONAMIDE NEGATIVE MODULATORS OF NR2A” (Mnemosyne Pharmaceuticals, Inc., priority 2013, published 2015)
